Values belong to the compound of their own block, whether it stands above or below them.
How the values were obtained:
[1] = test system: S. pneumoniae (8 isolates); assay type: cell-based, Streptococcus pneumonia; conditions: 20 h
Experimental: (§1) The broth microdilution susceptibility assay followed the procedure described by the Clinical and Laboratory Standards Institute (CLSI) in CLSI document M7-A10.
(§2) The following bacteria isolates were tested:
(§3) S.aureus, S.epidermidis, E.faecalis, and E.faecium colonies were grown on TSA (Tryptone Soya Agar; cat.N. P05012A -OXOID) S.pneumoniae and S.pyogenes colonies were grown on TSASB ((TSA) Agar +5% Sheep Blood; cat.N. PB5012A -OXOID). An inoculum was prepared by making a direct saline suspension of isolated colonies selected from an 18 to 24 hours agar plate incubated at 35±2 ° C. in ambient air. The suspension was adjusted to achieve a turbidity equivalent to a 0.5 McFarland turbidity standard (1 to 2 ×10^8 Colony Forming Units (CFU)) and diluted 200 fold within 15 minutes in broth. (S.aureus, S.epidermidis, E.faecalis, and E.faecium were diluted in CAMHB: Mueller Hinton Broth 2, Cation-Adjusted (cat. N. 90922 Fluka); S.pneumoniae and S.pyogenes were diluted in CAMHB +2.5% lysed horse blood. All broth contained 0.002% polysorbate 80.
(§4) 96-well plates were prepared containing 1 μL of the test compound (at 100× desired test concentration in 100% DMSO); compounds were tested at 8 final concentrations, i.e. 16 μg/mL, 8 μg/mL, 4 μg/mL, 2 μg/mL, 1 μg/mL, 0.5 μg/mL, 0.25 μg/mL, and 0.125 μg/mL. 100 μL of the broth dilution was dispensed in each well plate to have a final bacterial concentration in plate of ˜5×10^5 CFU/mL. The plates were incubated at 35±2° C. in ambient air for 20 hours.

[2] = test system: E.coli; assay type: cell-based, Escherichia coli; conditions: for MIC ratio Coli/Staph: ratio of E. coli MIC to S. aureus MIC
Experimental: (§5) This assay was used to determine the minimum concentration of a test compound (i.e., an antimicrobial peptide described herein) able to inhibit the growth of a bacterial strain of interest. This is a standard method for measuring and comparing the potency of peptide-based antibacterial agents (Steinberg et al., Antimicrobial Agents and Chemotherapy 1997, 41 (8) 1738 - 1742 and Wiegand et al., Nature Protocols 2008, 3, 163-175).
(§6) The MIC is reported in units of μg/mL.
(§7) Bacterial cultures were grown by inoculating Mueller-Hinton Broth (MHB) with 3 or 4 representative colony (typical size, color, and shape) from a bacterial strain grown on a LB agar plate. Inoculated liquid cultures were grown at 37° C. with moderate shaking (200-250 rpm) until bacteria produced a visibly turbid suspension. Bacterial inoculum was approximated by measuring the optical density at 600 nm (0D600) of the bacterial culture against a sterile MHB blank. Typically, OD600=0.10 corresponds to ˜1×10^8 cfu/mL for S.aureus and OD600 =0.15 corresponds to ˜1×10^8 cfu/mL for E.coli.
(§8) Test compounds were prepared as stock solutions in vehicle at a concentration 10 times the highest concentration to be tested for antibacterial activity (usually 320 μg/mL stock solutions). 2x serial dilutions in vehicle (at 10× the final test concentrations) of the test compounds were prepared from the test compound stock solutions in a non-binding 96 well plate.
(§9) In a sterile clear flat bottom 96 well plate, 15 μL of each test compound dilution was added to 135 μL of ˜5×10^5 cfu/mL bacterial culture. Each concentration was tested in duplicate. Each experiment contained positive control wells for bacterial growth (i.e., no test compound added to bacteria) and sterility controls wells (i.e., sterile MHB and no test compounds added). 96 well plates containing bacterial cultures and test compounds were incubated at 37° C. for 16-20 hours with shaking at 200 rpm.
(§10) After incubation, the MIC of each test compound was determined by measuring the OD600 of each well using a plate reader. Wells with OD600 >0.08 were considered to have bacterial growth and wells with OD600<0.08 were considered to have no bacterial growth. The lowest concentration of test agent able to inhibit bacterial growth (0D600<0.08 after 16-20 hours) was defined as the MIC.

[3] = test system: E. faecium (3 isolates); assay type: cell-based, Enterococcus faecium; conditions: 20 h
Experimental: as §1, §2, §3, §4

[4] = test system: S.aureus; assay type: cell-based, Staphylococcus aureus
Experimental: as §5, §6, §7, §8, §9, §10

[5] = test system: E. faecalis (5 isolates); assay type: cell-based, Enterococcus faecalis; conditions: 20 h
Experimental: as §1, §2, §3, §4

[6] = test system: S. epidermidis (5 isolates); assay type: cell-based, Staphylococcus epidermidis; conditions: 20 h
Experimental: as §1, §2, §3, §4

[7] = test system: B. fragilis
[8] = test system: C. difficile
[9] = in vitro; assay type: cell-based; conditions: human, HepG2 cells
Experimental: Compounds were tested for cytotoxicity to a mammalian cell line HepG2 (Human hepatocyte carcinoma from ECACC (85011430)). Hep G2 cells were seeded into 96-well plates, 7500 cells/well in 100 μl medium (Minimum Essential Medium (Gibco 21090) supplemented with 2 mM L-Glutamine, 1% non-essential amino acids and 10% fetal bovine serum) and incubated for 20 hours at 37° C., 5% CO2. 100 μL of fresh medium containing a test compound or DMSO (for control) at 2× final concentration were added and incubated for 48 hours at 37° C., 5% CO2. The final concentration of DMSO in plate was 1%. At the end of this incubation, 20 μl MTT (Thiazolyl Blue Tetrazolium Bromide) solution 5 mg/ml in H2O (0.5 mg/ml final in well) was added to all wells. Cells were incubated with MTT for 4 hours at 37° C., 5% CO2. After incubation, medium containing MTT was removed; 200 μl of DMSO was added in each well and plates were put on a shaker for 5 minutes. Absorbance was read on a SpectraMax plate reader at 570 nm. Specific absorbance (Specific A570) was calculated by subtracting the mean absorbance values of the blank wells (no HepG2 cells) from each well. Control values were determined from wells containing cells and treated with medium+1% DMSO only (no test compound). % viability was calculated as:
(Specific A570test compound/Specific A570control)×100.

[10] = test system: S. pyogenes (2 isolates); assay type: cell-based, Streptococcus pyogenes; conditions: 20 h
Experimental: as §1, §2, §3, §4

[11] = test system: S. aureus (14 isolates); assay type: cell-based, Staphylococcus aureus; conditions: 20 h
Experimental: as §1, §2, §3, §4

Compound: CC[C@H](C)[C@H](NC(=O)[C@@H](Cc1ccccc1)NC)C(=O)N[C@@H](CO)C(=O)N[C@H](CCC(N)=O)C(=O)N[C@@H](C(=O)N[C@H](C(=O)N[C@@H](CO)C(=O)N[C@H]1C(=O)N[C@@H](C)C(=O)N[C@@H](CCCNC(=N)N)C(=O)N[C@@H]([C@@H](C)CC)C(=O)O[C@H]1C)[C@@H](C)CC)[C@@H](C)CC [[Arg10]teixobactin, reference compound]
- S. pneumoniae (8) MIC90 [1]: 0.25 µg/mL
- E. faecium (3) MIC90 [3]: 2 µg/mL
- E. faecalis (5) MIC90 [5]: 2 µg/mL
- S. epidermidis (MIC90) (5) [6]: 0.5 µg/mL
- viability at 48 h, 100 µM [9]: 115%
- S. pyogenes (2) MIC90 [10]: 0.25 µg/mL
- S. Aureus (14) MIC90 [11]: 0.5 µg/mL

Compound: CC[C@H](C)[C@H](NC(=O)[C@@H](Cc1ccc(Cl)cc1)NC)C(=O)N[C@@H](CO)C(=O)N[C@H](CCC(N)=O)C(=O)N[C@@H](C(=O)N[C@H](C(=O)N[C@@H](CO)C(=O)N[C@H]1C(=O)N[C@@H](C)C(=O)N[C@@H](CCCCNC(=N)N)C(=O)N[C@@H]([C@@H](C)CC)C(=O)O[C@H]1C)[C@@H](C)CC)[C@@H](C)CC [Compound 70, H-D-MePhe(4-Cl)-Ile-Ser-D-Gln-D-aIle-Ile-Ser-c(D-Thr-Ala-Har-Ile)]
- S. pneumoniae (8) MIC90 [1]: ≤0.12 µg/mL
- MIC E. coli [2]: >16 µg/mL
- MIC ratio Coli/Staph [2]: >530
- E. faecium (3) MIC90 [3]: ≤0.12 µg/mL
- MIC S. aureus [4]: 0.03 to 0.06 µg/mL
- E. faecalis (5) MIC90 [5]: 0.25 µg/mL
- S. epidermidis (MIC90) (5) [6]: ≤0.12 µg/mL
- MIC B. fragilis [7]: >32 µg/mL
- MIC C. difficile [8]: 0.015 to 0.03 µg/mL
- viability at 48 h, 100 µM [9]: 114%
- S. pyogenes (2) MIC90 [10]: ≤0.12 µg/mL
- S. Aureus (14) MIC90 [11]: ≤0.12 µg/mL

Compound: CC[C@H](C)[C@H](NC(=O)[C@@H](Cc1ccccc1)NC)C(=O)N[C@@H](Cc1cccc2ccccc12)C(=O)N[C@H](CCC(N)=O)C(=O)N[C@@H](C(=O)N[C@H](C(=O)N[C@@H](CO)C(=O)N[C@H]1C(=O)N[C@@H](C)C(=O)N[C@@H](CCCCNC(=N)N)C(=O)N[C@@H]([C@@H](C)CC)C(=O)O[C@H]1C)[C@@H](C)CC)[C@@H](C)CC [Compound 73, H-D-MePhe-Ile-lNal-D-Gln-D-aIle-Ile-Ser-c(D-Thr-Ala-Har-Ile)]
- S. pneumoniae (8) MIC90 [1]: ≤0.12 µg/mL
- E. faecium (3) MIC90 [3]: 0.25 µg/mL
- E. faecalis (5) MIC90 [5]: 0.5 µg/mL
- S. epidermidis (MIC90) (5) [6]: 0.25 µg/mL
- viability at 48 h, 100 µM [9]: 113%
- S. pyogenes (2) MIC90 [10]: ≤0.12 µg/mL
- S. Aureus (14) MIC90 [11]: 0.5 µg/mL

Further lines, with some results ahead:

- S. pneumoniae (8) MIC90 [1]: ≤0.12 µg/mL
- MIC E. coli [2]: >16 µg/mL
- MIC ratio Coli/Staph [2]: >530
- E. faecium (3) MIC90 [3]: 0.5 µg/mL
- MIC S. aureus [4]: 0.03 to 0.06 µg/mL
- E. faecalis (5) MIC90 [5]: 0.5 µg/mL
- S. epidermidis (MIC90) (5) [6]: ≤0.12 µg/mL
- MIC B. fragilis [7]: >32 µg/mL
- MIC C. difficile [8]: 0.03 to 0.06 µg/mL
- S. pyogenes (2) MIC90 [10]: ≤0.12 µg/mL
- S. Aureus (14) MIC90 [11]: ≤0.12 µg/mL
Compound: CC[C@H](C)[C@H](NC(=O)[C@@H](Cc1ccccc1)NC)C(=O)N[C@@H](CO)C(=O)N[C@H](CCC(N)=O)C(=O)N[C@@H](C(=O)N[C@H](C(=O)N[C@@H](CO)C(=O)N[C@H]1C(=O)N[C@@H](C)C(=O)N[C@@H](CCCCNCc2ccccc2)C(=O)N[C@@H]([C@@H](C)CC)C(=O)O[C@H]1C)[C@@H](C)CC)[C@@H](C)CC [Compound 71, H-D-MePhe-Ile-Ser-D-Gln-D-aIle-Ile-Ser-c(D-Thr-Ala-Lys(Bn)-Ile)]
- viability at 48 h, 100 µM [9]: 92%

- S. pneumoniae (8) MIC90 [1]: ≤0.12 µg/mL
- E. faecium (3) MIC90 [3]: 1 µg/mL
- E. faecalis (5) MIC90 [5]: 2 µg/mL
- S. epidermidis (MIC90) (5) [6]: 0.5 µg/mL
- S. pyogenes (2) MIC90 [10]: 0.25 µg/mL
- S. Aureus (14) MIC90 [11]: 0.5 µg/mL
Compound: CC[C@H](C)[C@H](NC(=O)[C@@H](Cc1ccccc1)NC)C(=O)N[C@@H](CO)C(=O)N[C@H](CCC(N)=O)C(=O)N[C@@H](C(=O)N[C@H](C(=O)N[C@@H](CO)C(=O)N[C@H]1C(=O)N[C@@H](C)C(=O)N[C@@H](CCCCN)C(=O)N[C@@H]([C@@H](C)CC)C(=O)O[C@H]1C)[C@@H](C)CC)[C@@H](C)CC [[Lys10]teixobactin, reference compound]
- viability at 48 h, 100 µM [9]: 95.6%

- S. pneumoniae (8) MIC90 [1]: ≤0.12 µg/mL
- MIC E. coli [2]: >16 µg/mL
- MIC ratio Coli/Staph [2]: >128
- E. faecium (3) MIC90 [3]: 0.5 µg/mL
- MIC S. aureus [4]: 0.12 to 0.25 µg/mL
- E. faecalis (5) MIC90 [5]: 0.5 µg/mL
- S. epidermidis (MIC90) (5) [6]: ≤0.12 µg/mL
- MIC B. fragilis [7]: >32 µg/mL
- MIC C. difficile [8]: 0.25 to 0.5 µg/mL
- S. pyogenes (2) MIC90 [10]: ≤0.12 µg/mL
- S. Aureus (14) MIC90 [11]: 0.25 µg/mL
Compound: CC[C@H](C)[C@H](NC(=O)[C@@H](Cc1ccccc1)NC)C(=O)N[C@@H](CO)C(=O)N[C@H](CCC(N)=O)C(=O)N[C@@H](C(=O)N[C@H](C(=O)N[C@@H](CO)C(=O)N[C@H]1C(=O)N[C@@H](C)C(=O)N[C@@H](Cc2ccc(NC(=N)N)cc2)C(=O)N[C@@H]([C@@H](C)CC)C(=O)O[C@H]1C)[C@@H](C)CC)[C@@H](C)CC [Compound 72, H-D-MePhe-Ile-Ser-D-Gln-D-aIle-Ile-Ser-c(D-Thr-Ala-Phe(4-guanidino)-Ile)]
- viability at 48 h, 100 µM [9]: 115%

Reference: patent US20200216493A1, “ANTIMICROBIAL PEPTIDES” (FERRING B.V., priority 2016, published 2020)
